# What was measured:
# [1] = tested on: ddY mice; experiment: Acute toxicity in ddY mice; assay type: in vivo; settings: intraperitoneal administration at 30 mg/kg, monitored for 5 days
# From the text: The compound 109.2HCl and compound 143.2HCl.H2O were respectively administered intraperitoneally to ddY mice and the mice were monitored for 5 days.
# [2] = molecular target: T1, p160ROCK (Homo sapiens, UniProt Q13464); experiment: Inhibition of p160ROCK (myc-tagged, expressed in COS cells); assay type: biochemical; settings: enzyme expressed in COS cells
# T1 construct: made in house; host or cells: COS cells (transient transfection, immunoprecipitated with 9E10 anti-myc antibody on protein G-Sepharose)
# Description: (§1) Kinase assay included the following steps. That is, a reaction mixture (total amount 30 μl) containing 50 mM Hepes-NaOH (pH=7.4), 10 mM MgCl2, 5 mM MnCl2, 2 mM dithiothreitol, 0.02% Brij35, 1 μM [γ-^32P]ATP, 330 μg/ml histone, p160ROCK (2 μl) isolated by the method of Ishizaki et al. and the test compound was incubated at 30° C. for 20 minutes. The solution was mixed with a 1/3 amount of 4× Laemmli sample buffer, boiled for 5 minutes and applied to SDS-PAGE. The gel was stained with Coomassie Brilliant Blue and dried. The band of histone was cut out and assayed for radioactivity.
# (§2) Rho Kinase Inhibitory Action (Inhibition of p160ROCK and ROCKII)
# (§3) COS cells were seeded in a 3.5 cm dish and incubated overnight. […] After incubation for 20 hours, the cells were washed once with ice-cooled PBS, and the cells were lysed on ice for 20 minutes using a lysis buffer (20 mM Tris-HCl (pH=7.5), 1 mM EDTA, 1 mM EGTA, 5 mM MgCl2, 25 mM NaF, 10 mM β glycerophosphate, 5 mM sodium pyrophorphate, 0.2 mM phenylmethylsulfonyl fluoride, 2 mM dithiothreitol, 0.2 mM sodium vanadate, 0.05% Triton X-100, 0.1 μM calyculin A). The lysate was centrifuged at 10,000×g for 10 minutes and the supernatant was recovered. […] Then, protein G-Sepharose was added and the mixture was shaken for 2 more hours. […]
# [3] = tested on: mouse femoral bone; experiment: Inhibition of bone resorption (in vitro), mouse femoral bone; settings: 144 h, 6 days incubation of ICR mouse femoral bone
# Description: Inhibition of Bone Resorption (in vitro)
# The determination of the in vitro inhibition of bone resorption using mouse femoral bone followed the method below.
# The femoral bone of 3-6 week old male ICR mice was aseptically removed, and bone marrow cavity was washed with F12 medium, containing 10% heat inactivated fetal bovine serum, penicillin G calcium (100 units/ml), kanamycin sulfate (60 μg) and 0.15% sodium hydrogencarbonate (hereinafter the medium is to be referred to as culture solution). After washing the bone marrow cavity and then removing the soft tissue adhered to the bone, the bone was subjected to incubation. The test compound was once dissolved in dimethyl sulfoxide (DMSO) to give a 10 mg/ml solution, which was diluted 1000-fold with the culture solution to give a 10 μg/ml solution. The test compounds were respectively added to the concentration shown in Table 7 and, using this culture solution (1.2 ml), the ICR mouse femoral bone was incubated in a 24 well plate for 6 days under the conditions of 5% CO2 gas, 95% air. After the completion of the incubation, the culture supernatant was recovered, and the amount of calcium suspending in the culture supernatant was quantitatively determined by the chelate method using o-cresolphthalein. The bone resorption inhibitory action of the test compound was calculated by the following formula using the incubation of the femoral bone without addition of the test compound as a control. [formula] This experiment was done with 4 cases in each group. As the control, the same amount of DMSO alone as in the case with the addition of the test compound was used.
# [4] = tested on: CEM cells (human T cell type established cell); experiment: Inhibition of VLA integrin activation (phorbol ester-induced adhesion of CEM cells to fibronectin); assay type: cell-based; settings: CCRF-CEM, PMA-induced adhesion, read-out: Adhesion induction inhibition (%)
# Description: Inhibition of VLA (Very Late Antigen) Integrin Activation
# As the index of the activation by VLA integrin, phorbol ester-induced adhesion of CEM cells (human T cell type established cell) to fibronectin, which is a ligand of VIA integrin, was measured. The inhibitory action on the induced adhesion by the test compound was determined by the following method.
# CEM cells were washed with RPMI1640 medium containing 0.5% bovine serum albumin (BSA), 10 mM HEPES, 2 mM L-glutamin, 1 mM sodium pyruvate, 60 μg/ml kanamycin sulfate and 1.5 mg/ml sodium hydrogencarbonate (hereinafter this medium is referred to as culture solution) and suspended in this medium for use in the following experiment. To each well of a 96 well plate coated with human fibronectin were added CEM cells (5×10^4) and the test compound dissolved in the culture solution (final concentration 1-100 μM) to the amount of 100 μl, and the plate was stood at 37° C. for 1 hour. Then, PMA (phorbol 12-myristate 13-acetate, TPA; final concentration 10 ng/ml) and the test compound were added to the amount of 200 μl, and the plate was stood at 37° C. for 30 minutes. Each well was washed twice with the culture solution (200 μL) at 37° C., and the LDH (lactate dehydrogenase) activity of the cells adhered to the plate was determined, whereby the amount of the adhered cell was measured. Based on the results obtained by the above-mentioned method, the inhibitory action of the test compound on the induced adhesion was calculated by the following formula The results are shown in Table 6. Inhibition (%) of adhesion induction=(a−b)/(a−c)×100 • a=number of cells adhered with the addition of PMA • b=number of cells adhered with the addition of test compound and PMA • c=number of cells adhered without stimulation
# [5] = molecular target: T2, ROCKII (Mus musculus, UniProt P70336); experiment: Inhibition of ROCKII (myc-tagged, expressed in COS cells); assay type: biochemical; settings: enzyme expressed in COS cells; read-out: IC50 (μM) ROCK-II
# T2 construct: made in house; host or cells: COS cells (transient transfection, immunoprecipitated with 9E10 anti-myc antibody on protein G-Sepharose)
# Description: as §1, §2, §3
# [6] = molecular target: T3, Human Platelet Rho Kinase (p160ROCK) (Homo sapiens, UniProt Q13464); experiment: Rho kinase inhibitory action (inhibition of human platelet Rho kinase (p160ROCK)); assay type: biochemical; settings: histone substrate, 1 μM ATP
# T3 construct: Human platelet p160ROCK was isolated by the method of Ishizaki et al; from tissue; host or cells: human platelets
# Description: Rho Kinase Inhibitory Action (Inhibition of Human Platelet Rho Kinase (p160ROCK))
# as §1
# [7] = tested on: trachea specimen contracted with acetylcholine; experiment: Effect on contraction by acetylcholine of trachea specimen removed from guinea pig; settings: Cavia porcellus, acetylcholine 10^−6 M contraction, 50% relaxation vs papaverine 10^−4 M maximum, read-out: Trachea relaxing action
# Description: Male Hartley guinea pigs (body weight 260-390 g) were anesthetized by the peritoneal administration of pentobarbital sodium (100 mg/kg) and exsanguinated, whereafter trachea was removed. The anterior cartilage of the trachea was opened and the band was cut in a 3 mm width strip to give a specimen. The specimen was hung in a Magnus bath (40 ml) filled with Krebs-Henseleit solution (NaCl 117 mM; KCl 4.7 mM; CaCl2 2.5 mM; MgSO4 1.2 mM; NaHCO3 24.8 mM; KH2PO4 1.2 mM; glucose 11.0 mM) at a load of 1 g. The Magnus bath was constantly bubbled with a mixed gas (95% O2+5% CO2 gas). The tension of the strip was measured with an isomeric transducer (TB-611T, Nippon Koden) and depicted on a recorder (Ti-102, Tokai Irika).
# [8] = tested on: normal human umberical vascular endothelial cells; experiment: Inhibition of angiogenesis (lumen formation in vascular endothelial cells); assay type: cell-based; settings: 18 hours, compared with the control, number rises with inhibition of lumen formation
# Description: Inhibition of Angiogenesis
# The inhibition of angiogenesis was evaluated by using the inhibition of lumen formation in vascular endothelial cell as an index. To be specific, normal human umberical vascular endothelial cells (KURABO […] LTD.) were suspended in E-GMUV medium at 5.5×10^4 cells/ml and 400 μl therefrom was added on matrigel plate (EHS sarcoma-derived reconstructed basement membrane, Collaborative Biomedical Products). Then, the test compound (1 mM solution, 4 μl) was added and the cells were incubated at 37° C. under 5% CO2 gas for 18 hours. After the completion of the incubation, the number of lumen per predetermined area was counted under a microscope. Inasmuch as the number of lumen increases by the inhibition of lumen formation, the test compound was evaluated by comparison of the number of lumen with the control.
# [9] = tested on: smooth muscle cell (SMC) from rat aorta; experiment: Inhibition of growth of vascular smooth muscle cell; assay type: cell-based; settings: 48 hours, MTT
# Description: Inhibition of Growth of Vascular Smooth Muscle Cell
# The separation from the artery of rat and culture of smooth muscle cell (SMC) followed the explant method of Ross (Ross, R. and Glomset, J. A., N. Engl. J. Med., 295, 369-420, 1976). Male wistar rats (10 week old) was slaughtered by cutting the carotid arteries and aorta of thorax was removed. After removal of fat tissues around the tunica externa and peeling of tunica intima, the artery was minced and incubated in 10% fetal bovine serum (FBS)-containing DMEM medium at 37° C. under 5% CO2 gas. Seven days later, the out-grown cells were separated by trypsin treatment, washed with phosphate-buffered saline (PBS) and incubated in 10% FBS-containing DMEM medium in a 80 cm^2 culture flask. The cells of subculture 2 were suspended in 10% FBS-containing DMEM medium at 5×10^4 cells/ml and 100 μl thereof per well was added to 96 well collagen-coated plate, which was incubated at 37° C. under 5% CO2 gas for one day. The test compound was appropriately diluted with dimethyl sulfoxide (DMSO) and added to the 96 well plate. The concentration of DMSO in the medium was adjusted to 1%. After 48 hours, 10 μl of MTT solution (5 mg/ml) was added and, 4 hours later, 10% sodium dodecyl sulfate-0.01 N hydrochloric acid (50 μl) was added. The absorbance at 570 nm was measured the following day by an immunoreader. The SMC growth inhibitory action of the test compound was shown by inhibition percentage calculated by the following formula The results are shown in Table 10.
# [10] = tested on: thoractic aorta ring contracted with phenylephrine; experiment: Vasodilating action on phenylephrine-contracted thoracic aorta rings; settings: Oryctolagus cuniculus; rabbit aortic ring, phenylephrine 10^−6 M contraction; concentration for 50% relaxation; read-out: Vasorelaxing action
# Description: Male rabbits (body weight 1.9-3.0 kg) were anesthetized with pentobarbital sodium and exsanguinated, whereafter thoractic aorta was removed. An about 2 mm width aortic ring samples were prepared and hung in a Magnus bath (40 ml) filled with Krebs-Henseleit solution (37° C., NaCl 117 mM; KCl 4.7 mM; CaCl2 2.5 mM; MgSO4 1.2 mM; NaHCO3 24.8 mM; KH2PO4 1.2 mM; glucose 11.0 mM) at a load of 2 g. The Magnus bath was constantly bubbled with a mixed gas (95% O2+5% CO2 gas). The tension of the preparation was measured with an isomeric transducer (TB-611T, Nippon Koden). The preparation was contracted with phenylephrine (10^−6 M) and, after the contraction was stabilized, the test compound was added accumulatively and relaxing action was observed.
# [11] = tested on: hind limb skin blood flow; experiment: Peripheral blood flow increasing action in STZ-induced diabetic rats; assay type: in vivo, rat; settings: intravenous
# Description: Peripheral Blood Flow Increasing Action
# Streptozotocin (STZ, 65 mg/kg) was intravenously injected to male SD rats (body weight 200-300 g) to prepare diabetic rats. One month later, STZ-induced diabetic rats were anesthetized with pentobarbital sodium and the blood flow in the hind limb skin was measured with laser blood flowmeter (ALF21R, Advance). The test compound was intravenously administered via catheter dwelled in the carotid arteries, and hind limb skin blood flow increasing action was observed. The blood flow increasing action of the test compound was expressed by increase percentage from the blood flow before administration.
# [12] = tested on: Bovine Aorta Thoracia Rho Kinase; experiment: Rho kinase inhibitory action (inhibition of bovine aorta thoracia Rho kinase); assay type: biochemical; settings: test compound 10 μM
# Description: Rho Kinase Inhibitory Action (Inhibition of Bovine Aorta Thoracia Rho Kinase)
# The Rho kinase was prepared from bovine aorta of thorax by partial purification as in the following. The artery was minced and homogenized with a 9-fold amount of 50 mM Tris-hydroxymethylaminomethane (Tris) (pH=7.4), 1 mM dithiothreitol, 1 mM EGTA, 1 mM EDTA, 100 μM p-amidinophenylmethylsulfonyl fluoride, 5 μM E-64, 5 μM leupeptine and 5 μM pepstatin A. The homogenate was centrifuged (10,000×g, 30 minutes) to give supernatant. The supernatant was adsorbed onto a hydroxyapatite column. The column was washed with 0.2M phosphate buffer (pH=6.8). The standard product of Rho kinase was eluted with 0.4M phosphate buffer (pH=6.8). The Rho kinase was assayed as follows.
# A reaction mixture (total amount 50 μl) containing 50 mM Tris, 1 mM EDTA, 5 mM MgCl2, 50 μg/ml histone, 10 μM GTPγS, 100 μg/ml Rho, 2 μM [^32P]ATP, the Rho kinase (3 μl) prepared in the above and the test compound was reacted at 30° C. for 5 minutes. The reaction was terminated by the addition of 25% trichloroacetic acid (TCA) solution (1 ml) and the mixture was stood at 4° C. for 30 minutes. Then, the mixture was filtered through a membrane filter (HAWP type, Millipore), and the radioactivity of the filter was counted on a liquid scintillation counter. The inhibitory action of the test compound was calculated from the following formula based on the comparison of the radioactivity with the sample without the test compound (control).
# T3 sequence (Q13464 whole entry): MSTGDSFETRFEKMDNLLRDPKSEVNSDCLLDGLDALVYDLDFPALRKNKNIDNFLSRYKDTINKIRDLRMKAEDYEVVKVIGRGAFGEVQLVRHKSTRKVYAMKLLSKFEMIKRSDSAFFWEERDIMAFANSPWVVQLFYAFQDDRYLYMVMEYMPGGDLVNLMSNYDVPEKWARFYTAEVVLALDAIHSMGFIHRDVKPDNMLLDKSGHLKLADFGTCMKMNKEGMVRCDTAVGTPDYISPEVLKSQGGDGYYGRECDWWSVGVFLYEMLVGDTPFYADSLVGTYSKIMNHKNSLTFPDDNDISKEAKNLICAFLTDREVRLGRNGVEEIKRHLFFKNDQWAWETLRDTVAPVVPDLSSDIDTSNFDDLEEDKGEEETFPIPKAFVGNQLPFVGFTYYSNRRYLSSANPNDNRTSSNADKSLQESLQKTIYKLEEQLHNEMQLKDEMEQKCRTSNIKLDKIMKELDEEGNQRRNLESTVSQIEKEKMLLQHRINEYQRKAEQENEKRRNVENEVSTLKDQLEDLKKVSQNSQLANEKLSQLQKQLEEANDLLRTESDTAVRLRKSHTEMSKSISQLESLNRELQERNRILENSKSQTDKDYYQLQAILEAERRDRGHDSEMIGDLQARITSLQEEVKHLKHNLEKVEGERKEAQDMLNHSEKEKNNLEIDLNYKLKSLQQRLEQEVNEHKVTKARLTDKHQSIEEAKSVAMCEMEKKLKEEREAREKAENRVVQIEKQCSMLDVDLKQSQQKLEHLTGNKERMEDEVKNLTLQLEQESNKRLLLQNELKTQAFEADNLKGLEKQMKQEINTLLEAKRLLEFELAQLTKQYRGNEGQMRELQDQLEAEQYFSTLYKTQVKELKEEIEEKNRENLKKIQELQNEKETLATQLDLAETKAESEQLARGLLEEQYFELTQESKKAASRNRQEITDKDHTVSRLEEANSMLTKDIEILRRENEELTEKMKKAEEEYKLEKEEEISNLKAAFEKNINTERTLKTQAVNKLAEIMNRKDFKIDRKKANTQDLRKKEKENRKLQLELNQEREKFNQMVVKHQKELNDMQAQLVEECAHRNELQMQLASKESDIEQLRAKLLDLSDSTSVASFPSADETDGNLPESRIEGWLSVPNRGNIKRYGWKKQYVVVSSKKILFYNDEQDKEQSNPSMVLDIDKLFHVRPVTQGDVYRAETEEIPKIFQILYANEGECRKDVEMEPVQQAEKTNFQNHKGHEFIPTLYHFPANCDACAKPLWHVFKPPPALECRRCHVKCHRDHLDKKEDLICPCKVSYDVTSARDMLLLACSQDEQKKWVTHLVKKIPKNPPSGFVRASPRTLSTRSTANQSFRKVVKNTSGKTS
# T1 sequence (Q13464 whole entry): as above
# T2 sequence (P70336 whole entry): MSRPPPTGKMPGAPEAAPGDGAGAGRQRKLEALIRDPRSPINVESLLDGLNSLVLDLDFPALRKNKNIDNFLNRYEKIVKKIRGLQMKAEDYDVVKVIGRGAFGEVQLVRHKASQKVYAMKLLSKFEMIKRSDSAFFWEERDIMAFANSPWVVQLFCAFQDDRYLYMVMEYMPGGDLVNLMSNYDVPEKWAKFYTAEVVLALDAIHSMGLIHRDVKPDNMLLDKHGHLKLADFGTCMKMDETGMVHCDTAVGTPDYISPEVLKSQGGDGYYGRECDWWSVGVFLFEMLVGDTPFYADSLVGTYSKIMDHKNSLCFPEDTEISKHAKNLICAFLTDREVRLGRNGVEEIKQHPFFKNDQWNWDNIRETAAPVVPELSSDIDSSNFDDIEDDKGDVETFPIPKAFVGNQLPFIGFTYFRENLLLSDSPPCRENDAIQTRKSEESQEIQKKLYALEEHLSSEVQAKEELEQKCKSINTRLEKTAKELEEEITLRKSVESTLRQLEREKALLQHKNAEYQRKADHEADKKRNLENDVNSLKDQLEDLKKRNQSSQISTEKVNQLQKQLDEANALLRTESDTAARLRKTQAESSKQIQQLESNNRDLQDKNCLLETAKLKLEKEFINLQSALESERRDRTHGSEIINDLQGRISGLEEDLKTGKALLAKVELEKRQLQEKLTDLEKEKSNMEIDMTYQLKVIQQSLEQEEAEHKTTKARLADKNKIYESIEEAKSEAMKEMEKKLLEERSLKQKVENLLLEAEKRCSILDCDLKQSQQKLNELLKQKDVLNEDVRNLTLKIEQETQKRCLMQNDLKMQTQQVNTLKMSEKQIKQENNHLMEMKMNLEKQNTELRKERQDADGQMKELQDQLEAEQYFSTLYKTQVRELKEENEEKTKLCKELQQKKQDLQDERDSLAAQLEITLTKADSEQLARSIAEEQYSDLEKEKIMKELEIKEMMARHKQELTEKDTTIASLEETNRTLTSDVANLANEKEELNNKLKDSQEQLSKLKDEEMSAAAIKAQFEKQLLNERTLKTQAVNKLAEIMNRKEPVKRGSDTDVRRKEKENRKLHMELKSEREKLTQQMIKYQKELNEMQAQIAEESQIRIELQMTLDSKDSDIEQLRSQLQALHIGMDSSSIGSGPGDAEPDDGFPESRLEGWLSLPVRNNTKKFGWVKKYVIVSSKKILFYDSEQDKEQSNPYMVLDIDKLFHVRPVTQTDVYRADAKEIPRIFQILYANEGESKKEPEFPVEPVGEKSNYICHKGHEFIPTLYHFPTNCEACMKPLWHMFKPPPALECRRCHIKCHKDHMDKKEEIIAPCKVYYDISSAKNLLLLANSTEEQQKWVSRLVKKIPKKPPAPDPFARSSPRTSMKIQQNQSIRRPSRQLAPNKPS
SMILES,Acute toxicity (death) [1],IC50 [2],inhibition at 100 µM [3],inhibition at 100 µM ([4]; concentration 100 μM),IC50 [5],IC50 [6],inhibition at 10 µM ([4]; concentration 10 μM),IC50 [7],Number of lumen (10 μM) [8],IC50 [9],IC50 [10],Increase in skin blood flow ± standard error (%) ([11]; 0.03 μg),Increase in skin blood flow ± standard error (%) ([11]; 0.1 μg),Inhibition (%) [12]
"N=C(N)NC[C@H]1CC[C@H](C(=O)Nc2ccnc3[nH]ncc23)CC1 [Compound 143.2HCl.H2O, trans-N-(1H-pyrazolo[3,4-b]pyridin-4-yl)-4-guanidinomethylcyclohexanecarboxamide]",did not cause death,0.88 µM,39.4%,77%,0.47 µM,1.6 µM,–,–,–,–,–,–,–,–
"C[C@@H](N)c1ccc(C(=O)Nc2ccnc3[nH]ccc23)cc1 [Compound 165.2HCl.3/2H2O, (R)-(+)-N-(1H-pyrrolo[2,3-b]pyridin-4-yl)-4-(1-aminoethyl)benzamide]",–,–,–,–,–,–,40%,0.066 µM,222%,38 µM,0.051 µM,135.8 ± 0.0%,144.7 ± 0.0%,100%
